Test results as given in ChEMBL document CHEMBL2010719, “Tyrosine modified analogues of the α4β7 integrin inhibitor biotin-R₈ERY prepared via Click Chemistry: synthesis and biological evaluation” (Bioorg Med Chem, 2012).
Residues, ends and D or L forms follow the SMILES beside them. *: point of attachment. X6 = CC(=O)OC[C@@H]1O[C@H](n2cc(C*)nn2)[C@@H](OC(C)=O)[C@H](OC(C)=O)[C@@H]1OC(C)=O; X3 = CC(=O)N[C@H]1[C@H](OC(C)=O)[C@H](OC(C)=O)[C@H](COC(C)=O)O[C@@H]1n1cc(C*)nn1; X1 = CC(=O)OC[C@@H]1OC(OC(C)=O)[C@@H](n2cc(C*)nn2)[C@H](OC(C)=O)[C@@H]1OC(C)=O; X9 = CC(=O)N[C@@H]1[C@H](OCCCn2cc(C*)nn2)O[C@@H](CO)[C@@H](O)[C@H]1O; X4 = CC(=O)N[C@H]1[C@H](O)[C@H](O)[C@H](CO)O[C@@H]1n1cc(C*)nn1; X5 = O=C(N[C@@H](Cn1cc(C*)nn1)C(=O)O)OCC1c2ccccc2-c2ccccc21; X2 = OC[C@@H]1O[C@H](n2cc(C*)nn2)[C@@H](O)[C@H](O)[C@@H]1O; Biotin = O=C1N[C@H]2[C@H](CS[C@H]2CCCCC(=O)*)N1; X8 = O=P(O)(O)CCn1cc(C*)nn1; X7 = O=C(O)Cn1cc(C*)nn1; Propargyl = C#CC*

Key:
Type in all cases: cell-based
[1] = target: T1, Integrin alpha-4/beta-7 (Mus musculus) (UniProt Q00651+P26011); assay: Inhibition of integrin alpha4 beta7 receptor in mouse TK1 cells assessed as inhibition of Mn2+-activated cell adhesion to mouse MAdCAM-1-Fc at 50 uM after 1 hr by methylene blue staining analysis relative to biotin-r9YDRREY
[2] = target: T1, Integrin alpha-4/beta-7 (Mus musculus); assay: Inhibition of integrin alpha4 beta7 receptor in mouse TK1 cells assessed as inhibition of Mn2+-activated cell adhesion to mouse MAdCAM-1-Fc at 100 uM after 1 hr using methylene blue staining relative to biotin-r9YDRREY
Integrin alpha-4/beta-7 = target: T2, Integrin alpha-4/beta-7 (Mus musculus, UniProt P26011+Q00651); assay: Inhibition of integrin alpha4 beta7 receptor in mouse TK1 cells assessed as inhibition of Mn2+-activated cell adhesion to mouse MAdCAM-1-Fc after 1 hr using methylene blue staining
T2 sequence (Q00651 whole entry): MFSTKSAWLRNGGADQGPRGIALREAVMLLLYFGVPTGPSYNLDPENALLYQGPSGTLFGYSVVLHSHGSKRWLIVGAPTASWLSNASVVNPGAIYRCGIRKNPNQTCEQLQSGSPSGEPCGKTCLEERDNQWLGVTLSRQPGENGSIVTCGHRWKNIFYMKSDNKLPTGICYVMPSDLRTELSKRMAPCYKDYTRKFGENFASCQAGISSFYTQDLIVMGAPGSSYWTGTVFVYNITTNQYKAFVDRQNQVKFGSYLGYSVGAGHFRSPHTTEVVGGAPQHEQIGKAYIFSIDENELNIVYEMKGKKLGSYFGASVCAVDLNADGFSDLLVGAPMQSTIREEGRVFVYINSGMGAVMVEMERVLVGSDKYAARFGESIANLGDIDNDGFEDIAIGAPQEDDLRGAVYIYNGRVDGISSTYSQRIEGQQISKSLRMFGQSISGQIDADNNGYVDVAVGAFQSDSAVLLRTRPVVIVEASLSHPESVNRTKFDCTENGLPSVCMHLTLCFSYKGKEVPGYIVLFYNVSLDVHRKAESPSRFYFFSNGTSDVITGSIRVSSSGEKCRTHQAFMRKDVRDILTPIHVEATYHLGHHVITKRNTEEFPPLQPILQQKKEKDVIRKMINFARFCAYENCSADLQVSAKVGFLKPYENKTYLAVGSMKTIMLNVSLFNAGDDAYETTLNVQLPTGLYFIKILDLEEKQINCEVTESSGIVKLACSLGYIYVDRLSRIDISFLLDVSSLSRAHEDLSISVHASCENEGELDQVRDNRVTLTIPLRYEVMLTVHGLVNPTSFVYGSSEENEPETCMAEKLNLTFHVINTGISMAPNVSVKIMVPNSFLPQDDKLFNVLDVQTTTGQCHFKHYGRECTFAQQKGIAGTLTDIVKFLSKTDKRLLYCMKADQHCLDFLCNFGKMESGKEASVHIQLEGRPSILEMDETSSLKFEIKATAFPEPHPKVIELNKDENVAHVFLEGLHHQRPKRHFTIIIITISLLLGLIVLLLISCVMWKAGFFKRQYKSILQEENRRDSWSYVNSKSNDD
T2 sequence (P26011 whole entry): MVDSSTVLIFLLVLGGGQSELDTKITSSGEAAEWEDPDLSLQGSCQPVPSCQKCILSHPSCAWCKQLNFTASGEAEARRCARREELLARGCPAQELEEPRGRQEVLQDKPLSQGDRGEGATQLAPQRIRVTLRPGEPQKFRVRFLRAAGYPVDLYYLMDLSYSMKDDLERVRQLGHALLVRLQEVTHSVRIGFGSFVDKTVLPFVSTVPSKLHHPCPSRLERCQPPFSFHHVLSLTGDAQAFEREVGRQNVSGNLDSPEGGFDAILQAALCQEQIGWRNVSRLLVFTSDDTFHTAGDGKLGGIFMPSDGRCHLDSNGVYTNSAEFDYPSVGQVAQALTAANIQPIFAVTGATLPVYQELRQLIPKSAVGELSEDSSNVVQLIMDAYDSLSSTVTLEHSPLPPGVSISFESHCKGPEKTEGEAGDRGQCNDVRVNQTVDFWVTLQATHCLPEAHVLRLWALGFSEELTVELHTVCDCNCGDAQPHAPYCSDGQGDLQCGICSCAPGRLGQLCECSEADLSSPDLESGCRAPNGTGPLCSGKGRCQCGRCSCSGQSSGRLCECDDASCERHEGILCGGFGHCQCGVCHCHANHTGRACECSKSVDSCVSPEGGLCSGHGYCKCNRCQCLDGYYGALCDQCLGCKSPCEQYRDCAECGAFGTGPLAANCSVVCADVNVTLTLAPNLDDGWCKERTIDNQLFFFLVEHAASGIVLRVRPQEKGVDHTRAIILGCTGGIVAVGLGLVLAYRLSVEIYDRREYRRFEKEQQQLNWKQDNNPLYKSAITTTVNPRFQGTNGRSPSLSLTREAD

For `C#CCOc1ccc(C[C@H](NC(=O)[C@H](CCCNC(=N)N)NC(=O)[C@H](CCC(=O)O)NC(=O)[C@H](CCCNC(=N)N)NC(=O)[C@H](CCCNC(=N)N)NC(=O)[C@H](CCCNC(=N)N)NC(=O)[C@H](CCCNC(=N)N)NC(=O)[C@H](CCCNC(=N)N)NC(=O)[C@H](CCCNC(=N)N)NC(=O)[C@H](CCCNC(=N)N)NC(=O)[C@H](CCCNC(=N)N)NC(=O)CCCC[C@@H]2SC[C@@H]3NC(=O)N[C@@H]32)C(=O)O)cc1` (Biotin-RRRRRRRRERY(Propargyl)-OH), the inhibition [1] was 39.8% and the inhibition [2] was 39.8%.

`CC(=O)OC[C@@H]1OC(OC(C)=O)[C@@H](n2cc(COc3ccc(C[C@H](NC(=O)[C@H](CCCNC(=N)N)NC(=O)[C@H](CCC(=O)O)NC(=O)[C@H](CCCNC(=N)N)NC(=O)[C@H](CCCNC(=N)N)NC(=O)[C@H](CCCNC(=N)N)NC(=O)[C@H](CCCNC(=N)N)NC(=O)[C@H](CCCNC(=N)N)NC(=O)[C@H](CCCNC(=N)N)NC(=O)[C@H](CCCNC(=N)N)NC(=O)[C@H](CCCNC(=N)N)NC(=O)CCCC[C@@H]4SC[C@@H]5NC(=O)N[C@@H]54)C(=O)O)cc3)nn2)[C@H](OC(C)=O)[C@@H]1OC(C)=O` (some centres not stated) (Biotin-RRRRRRRRERY(X1)-OH) gave an inhibition [1] of 104%, an inhibition [2] of 105% and an IC50 (Integrin alpha-4/beta-7) of 50 µM.

In the case of `N=C(N)NCCC[C@H](NC(=O)CCCC[C@@H]1SC[C@@H]2NC(=O)N[C@@H]21)C(=O)N[C@@H](CCCNC(=N)N)C(=O)N[C@@H](CCCNC(=N)N)C(=O)N[C@@H](CCCNC(=N)N)C(=O)N[C@@H](CCCNC(=N)N)C(=O)N[C@@H](CCCNC(=N)N)C(=O)N[C@@H](CCCNC(=N)N)C(=O)N[C@@H](CCCNC(=N)N)C(=O)N[C@@H](CCC(=O)O)C(=O)N[C@@H](CCCNC(=N)N)C(=O)N[C@@H](Cc1ccc(OCc2cn([C@H]3O[C@@H](CO)[C@@H](O)[C@@H](O)[C@@H]3O)nn2)cc1)C(=O)O` (Biotin-RRRRRRRRERY(X2)-OH), the inhibition [1] is reported as 60.2% and the inhibition [2] is reported as 62.7%.

For `CC(=O)N[C@H]1[C@H](OC(C)=O)[C@H](OC(C)=O)[C@H](COC(C)=O)O[C@@H]1n1cc(COc2ccc(C[C@H](NC(=O)[C@H](CCCNC(=N)N)NC(=O)[C@H](CCC(=O)O)NC(=O)[C@H](CCCNC(=N)N)NC(=O)[C@H](CCCNC(=N)N)NC(=O)[C@H](CCCNC(=N)N)NC(=O)[C@H](CCCNC(=N)N)NC(=O)[C@H](CCCNC(=N)N)NC(=O)[C@H](CCCNC(=N)N)NC(=O)[C@H](CCCNC(=N)N)NC(=O)[C@H](CCCNC(=N)N)NC(=O)CCCC[C@@H]3SC[C@@H]4NC(=O)N[C@@H]43)C(=O)O)cc2)nn1` (Biotin-RRRRRRRRERY(X3)-OH), the inhibition [1] was 40% and the inhibition [2] was 46.5%.

With `CC(=O)N[C@H]1[C@H](O)[C@H](O)[C@H](CO)O[C@@H]1n1cc(COc2ccc(C[C@H](NC(=O)[C@H](CCCNC(=N)N)NC(=O)[C@H](CCC(=O)O)NC(=O)[C@H](CCCNC(=N)N)NC(=O)[C@H](CCCNC(=N)N)NC(=O)[C@H](CCCNC(=N)N)NC(=O)[C@H](CCCNC(=N)N)NC(=O)[C@H](CCCNC(=N)N)NC(=O)[C@H](CCCNC(=N)N)NC(=O)[C@H](CCCNC(=N)N)NC(=O)[C@H](CCCNC(=N)N)NC(=O)CCCC[C@@H]3SC[C@@H]4NC(=O)N[C@@H]43)C(=O)O)cc2)nn1` (Biotin-RRRRRRRRERY(X4)-OH) the inhibition [1] was 28% and the inhibition [2] was 39.6%.

In the case of `N=C(N)NCCC[C@H](NC(=O)CCCC[C@@H]1SC[C@@H]2NC(=O)N[C@@H]21)C(=O)N[C@@H](CCCNC(=N)N)C(=O)N[C@@H](CCCNC(=N)N)C(=O)N[C@@H](CCCNC(=N)N)C(=O)N[C@@H](CCCNC(=N)N)C(=O)N[C@@H](CCCNC(=N)N)C(=O)N[C@@H](CCCNC(=N)N)C(=O)N[C@@H](CCCNC(=N)N)C(=O)N[C@@H](CCC(=O)O)C(=O)N[C@@H](CCCNC(=N)N)C(=O)N[C@@H](Cc1ccc(OCc2cn(C[C@H](NC(=O)OCC3c4ccccc4-c4ccccc43)C(=O)O)nn2)cc1)C(=O)O` (Biotin-RRRRRRRRERY(X5)-OH), the inhibition [1] is reported as 114%, the inhibition [2] is reported as 111% and the IC50 (Integrin alpha-4/beta-7) is reported as < 10 µM.

With `CC(=O)OC[C@@H]1O[C@H](n2cc(COc3ccc(C[C@H](NC(=O)[C@H](CCCNC(=N)N)NC(=O)[C@H](CCC(=O)O)NC(=O)[C@H](CCCNC(=N)N)NC(=O)[C@H](CCCNC(=N)N)NC(=O)[C@H](CCCNC(=N)N)NC(=O)[C@H](CCCNC(=N)N)NC(=O)[C@H](CCCNC(=N)N)NC(=O)[C@H](CCCNC(=N)N)NC(=O)[C@H](CCCNC(=N)N)NC(=O)[C@H](CCCNC(=N)N)NC(=O)CCCC[C@@H]4SC[C@@H]5NC(=O)N[C@@H]54)C(=O)O)cc3)nn2)[C@@H](OC(C)=O)[C@H](OC(C)=O)[C@@H]1OC(C)=O` (Biotin-RRRRRRRRERY(X6)-OH) the inhibition [1] was 47.4% and the inhibition [2] was 52.5%.

In the case of `N=C(N)NCCC[C@H](NC(=O)CCCC[C@@H]1SC[C@@H]2NC(=O)N[C@@H]21)C(=O)N[C@@H](CCCNC(=N)N)C(=O)N[C@@H](CCCNC(=N)N)C(=O)N[C@@H](CCCNC(=N)N)C(=O)N[C@@H](CCCNC(=N)N)C(=O)N[C@@H](CCCNC(=N)N)C(=O)N[C@@H](CCCNC(=N)N)C(=O)N[C@@H](CCCNC(=N)N)C(=O)N[C@@H](CCC(=O)O)C(=O)N[C@@H](CCCNC(=N)N)C(=O)N[C@@H](Cc1ccc(OCc2cn(CC(=O)O)nn2)cc1)C(=O)O` (Biotin-RRRRRRRRERY(X7)-OH), the inhibition [1] is reported as 56.1% and the inhibition [2] is reported as 34.9%.

For `N=C(N)NCCC[C@H](NC(=O)CCCC[C@@H]1SC[C@@H]2NC(=O)N[C@@H]21)C(=O)N[C@@H](CCCNC(=N)N)C(=O)N[C@@H](CCCNC(=N)N)C(=O)N[C@@H](CCCNC(=N)N)C(=O)N[C@@H](CCCNC(=N)N)C(=O)N[C@@H](CCCNC(=N)N)C(=O)N[C@@H](CCCNC(=N)N)C(=O)N[C@@H](CCCNC(=N)N)C(=O)N[C@@H](CCC(=O)O)C(=O)N[C@@H](CCCNC(=N)N)C(=O)N[C@@H](Cc1ccc(OCc2cn(CCP(=O)(O)O)nn2)cc1)C(=O)O` (Biotin-RRRRRRRRERY(X8)-OH), the inhibition [1] was 60.3% and the inhibition [2] was 65.4%.

`CC(=O)N[C@@H]1[C@H](OCCCn2cc(COc3ccc(C[C@H](NC(=O)[C@H](CCCNC(=N)N)NC(=O)[C@H](CCC(=O)O)NC(=O)[C@H](CCCNC(=N)N)NC(=O)[C@H](CCCNC(=N)N)NC(=O)[C@H](CCCNC(=N)N)NC(=O)[C@H](CCCNC(=N)N)NC(=O)[C@H](CCCNC(=N)N)NC(=O)[C@H](CCCNC(=N)N)NC(=O)[C@H](CCCNC(=N)N)NC(=O)[C@H](CCCNC(=N)N)NC(=O)CCCC[C@@H]4SC[C@@H]5NC(=O)N[C@@H]54)C(=O)O)cc3)nn2)O[C@@H](CO)[C@@H](O)[C@H]1O` (Biotin-RRRRRRRRERY(X9)-OH) showed an inhibition [1] of 41.5% and an inhibition [2] of 42.4%.
